The record followed here is BindingDB's records for doi:10.1021/jm950874+ (National Institutes of Health, 1996).

Structures are written as SMILES.

The target of this test is T1, Dimer of Gag-Pol polyprotein [489-587] (Human immunodeficiency virus 1, UniProt P12497).
T1 construct: 489-587
Nature of the test: Protease Inhibition Assay. The settings on record: pH 6.5; 37 °C. As for the experimental part:
Sensitivity of HIV-1 protease activity to protease inhibitors was determined by a peptide substrate cleavage assay. Protease products were analyzed on a reverse-phase high-pressure liquid chromatograph.
Regarding `CC(C)CC(NC(=O)OCc1ccccc1)(C(=O)O)C(=O)O` [Cancer Chemotherapy National Service Center (CCNSC) compound 20143], inhibition was half-maximal at 17 µM (IC50). This counts as double-digit micromolar. The result for `CCCCCCc1cc2c(cc1O)OC(=O)C(C(c1ccccc1)c1c(O)c3cc(CCCCCC)c(O)cc3oc1=O)C2O` (stereo not drawn) reads 0.32 µM; that for `O=c1oc2ccccc2c(O)c1-c1ccccc1` [Cancer Chemotherapy National Service Center (CCNSC) compound 251152], 42 µM; that for `CC(=O)NC(Cc1ccsc1)(C(=O)O)C(=O)O` [2-acetamido-2-(thiophen-3-ylmethyl)propanedioic acid], 23 µM. The result for `O=c1oc2cccc(O)c2c(O)c1Cc1ccccc1` reads 6 µM; that for `O=C1C(=O)c2ccccc2C(=O)C1=C(c1ccc(Cl)cc1Cl)c1c(O)c(O)c2ccccc2c1O` [2-[(2,4-dichlorophenyl)(3-hydroxy-1,4-dioxo-1,4-dihydronaphthalen-2-yl)methyl]-3-hydroxy-1,4-dihydronaphthalene-1,4-dione], 24 µM; that for `O=c1oc2ccccc2c(O)c1C(c1ccc(C(c2c(O)c3ccccc3oc2=O)c2c(O)c3ccccc3oc2=O)cc1)c1c(O)c2ccccc2oc1=O` [3-({4-[bis(4-hydroxy-2-oxo-2H-chromen-3-yl)methyl]phenyl}(4-hydroxy-2-oxo-2H-chromen-3-yl)methyl)-4-hydroxy-2H-chromen-2-one], 1.7 µM. As for `CCCC(=O)c1c(O)c(C)c(O)c(CC2C(=O)C(C(=O)CCC)C(=O)C(C)(C)C2=O)c1O` (stereo not drawn) [2-butanoyl-6-[(3-butanoyl-2,4,6-trihydroxy-5-methylphenyl)methyl]-3,5-dihydroxy-4,4-dimethylcyclohexa-2,5-dien-1-one], the IC50 (usually the point on the concentration scale where inhibition reaches its midpoint) is 26 µM. Molecule `O=c1oc2ccccc2c(O)c1C(c1ccc2c(c1)OCO2)c1c(O)c2ccccc2oc1=O` [Cancer Chemotherapy National Service Center (CCNSC) compound 373937] registered a half-maximal inhibitory concentration (IC50) of 30 µM. `O=c1oc2c(-c3ccccc3)cccc2c(O)c1-c1ccccc1` [Cancer Chemotherapy National Service Center (CCNSC) compound 251150] showed a half-maximal inhibitory concentration (IC50) of 13 µM. As for `CC(=O)OC1CCC2(C)C(C)C(C)CCC2(O)C1O` (stereo not drawn) [Cancer Chemotherapy National Service Center (CCNSC) compound 112500], the half-inhibitory concentration (IC50) was determined as 16 µM.

In turn, `C[C@]12CCC(=O)C=C1CC[C@@H]1[C@H]2[C@@H](O)C[C@@]2(C)[C@@H]1CC[C@]2(O)C(=O)COC(=O)CCC(=O)O` [Cancer Chemotherapy National Service Center (CCNSC) compound 7576] came in with a 50% inhibitory concentration (IC50) of 27 µM. The value for `CC(C)c1cccc(C(C)C)c1NC(=O)C(=O)CC(=O)CC(c1ccccc1)c1c(O)c2ccccc2oc1=O` (stereo not drawn) [N-[2,6-bis(propan-2-yl)phenyl]-6-(4-hydroxy-2-oxo-2H-chromen-3-yl)-2,4-dioxo-6-phenylhexanamide] was 31 µM. The value for `CC1(C)CC[C@]2(C(=O)O)CC[C@@]3(C)C(=CC[C@H]4[C@@]5(C)C[C@H](O)[C@H](O)[C@](C)(C(=O)O)[C@H]5CC[C@]43C)[C@@H]2C1` [(2S,3R,4R,4aS,6aR,6bR,8aS,12aS,14aS,14bR)-2,3-dihydroxy-4,6a,6b,11,11,14b-hexamethyl-1,2,3,4,4a,5,6,6a,6b,7,8,8a,9,10,11,12,12a,14,14a,14b-icosahydropicene-4,8a-dicarboxylic acid] was 35 µM; that for `O=C(Oc1ccccc1)N(CCO)C(c1ccccc1)C(O)c1ccccc1` (stereo not drawn) [phenyl N-(2-hydroxy-1,2-diphenylethyl)-N-(2-hydroxyethyl)carbamate] was 32 µM; that for `O=C1Oc2ccccc2C(O)C1Sc1c(O)c2ccccc2oc1=O` (stereo not drawn) [Cancer Chemotherapy National Service Center (CCNSC) compound 41234] was 21 µM.

`O=C1C2=C(C(=O)c3ccccc31)C(O)(S(=O)(=O)O)C(O)(S(=O)(=O)O)C1N=CC=CC21` (stereo not drawn) [11,12-dihydroxy-5,10-dioxo-4a,5,10,11,12,12a-hexahydro-1-azatetraphene-11,12-disulfonic acid] registered an IC50 of 2 µM.

In turn, `O=C1C(=O)c2ccccc2C(=O)C1=C(c1ccc(C(C2C(=O)C(=O)c3ccccc3C2=O)C2C(=O)C(=O)c3ccccc3C2=O)cc1)c1c(O)c(O)c2ccccc2c1O` (stereo not drawn) [2-({4-[bis(3-hydroxy-1,4-dioxo-1,4-dihydronaphthalen-2-yl)methyl]phenyl}(3-hydroxy-1,4-dioxo-1,4-dihydronaphthalen-2-yl)methyl)-3-hydroxy-1,4-dihydronaphthalene-1,4-dione] registered an IC50 of 0.75 µM.
